This note sets out measurements from PubChem BioAssay AID330 (DTP/NCI, 2004).

In the test the test system is P388 leukemia ip, CD2F1 mice, survival T/C. The test can be described thus: NCI In Vivo Anticancer Drug Screen. Data for tumor model P388 Leukemia (intraperitoneal) in CD2F1 (CDF1) mice. To be noted: endpoint: median survival time, higher = longer survival. In a few lines: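 Mice carrying the transplanted tumor received test compound or vehicle. Survival was recorded in each group, and the value is the treated-group measurement divided by that of the vehicle-treated control group.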

Where [1] appears, read: dose: 25.0 mg/kg/injection, schedule: Q01DX009 (ip), vehicle: saline.
The mark [2] stands for this setting: dose: 50.0 mg/kg/injection, schedule: Q01DX009 (ip), vehicle: saline.
The mark [3] stands for this setting: dose: 100.0 mg/kg/injection, schedule: Q01DX009 (ip), vehicle: saline.
Setting [4] is: dose: 50.0 mg/kg/injection, schedule: Q01DX009 (ip), vehicle: Klucel (hydroxypropylcellulose) (HPC).
Setting [5] is: dose: 100.0 mg/kg/injection, schedule: Q01DX009 (ip), vehicle: Klucel (hydroxypropylcellulose) (HPC).
The mark [6] stands for this setting: dose: 200.0 mg/kg/injection, schedule: Q01DX009 (ip), vehicle: Klucel (hydroxypropylcellulose) (HPC).
The mark [7] stands for this setting: dose: 12.5 mg/kg/injection, schedule: Q01DX009 (ip), vehicle: saline with Tween-80.
The mark [8] stands for this setting: dose: 25.0 mg/kg/injection, schedule: Q01DX009 (ip), vehicle: saline with Tween-80.
The mark [9] stands for this setting: dose: 50.0 mg/kg/injection, schedule: Q01DX009 (ip), vehicle: saline with Tween-80.
[10] abbreviates: dose: 60.0 mg/kg/injection, schedule: Q01DX005 (ip), vehicle: saline with Tween-80.
Where [11] appears, read: dose: 25.0 mg/kg/injection, schedule: Q04DX002 (ip), vehicle: saline with Tween-80.
Where [12] appears, read: dose: 100.0 mg/kg/injection, schedule: Q04DX002 (ip), vehicle: saline with Tween-80.
Setting [13] is: dose: 200.0 mg/kg/injection, schedule: Q04DX002 (ip), vehicle: saline with Tween-80.
Where [14] appears, read: dose: 50.0 mg/kg/injection, schedule: Q01DX005 (ip), vehicle: saline with Tween-80.
[15] abbreviates: dose: 100.0 mg/kg/injection, schedule: Q01DX005 (ip), vehicle: saline with Tween-80.
[16] abbreviates: dose: 200.0 mg/kg/injection, schedule: Q01DX005 (ip), vehicle: saline with Tween-80.

The structures appear in SMILES notation. “And” between values parts separate entries of the source, which are not always exact repeats. Equal entries are not always repeated. Inconclusive results and toxic doses are left out.

As for `O=c1c2ccccc2n2nc3ccccc3c2n1-c1ccccc1`, the T/C is, setting by setting: (dose: 93.25 mg/kg/injection, schedule: Q04DX002 (ip), vehicle: Klucel (hydroxypropylcellulose) (HPC)) 104 % of control; (dose: 186.5 mg/kg/injection, schedule: Q04DX002 (ip), vehicle: Klucel (hydroxypropylcellulose) (HPC)) 98 % of control; (dose: 373.0 mg/kg/injection, schedule: Q04DX002 (ip), vehicle: Klucel (hydroxypropylcellulose) (HPC)) 95 % of control.

In the case of `O=C(O)CCCNSc1ccccc1[N+](=O)[O-]`, the T/C runs as follows: (dose: 12.5 mg/kg/injection, schedule: Q01DX009 (ip), vehicle: saline) 100 % of control and 117 % of control; under setting [1], 108 % of control and 94 % of control; under setting [2], 99 % of control and 110 % of control; under setting [3], 100 % of control and 108 % of control.

For `O=[N+]([O-])c1ccc(NN=NCCCl)cc1`, under “dose: 12.5 mg/kg/injection, schedule: Q01DX009 (ip), vehicle: distilled water + Tween-80”, the T/C is 109 % of control.

Consider `BrCc1cccnc1`, for which the T/C reads like this: (dose: 12.5 mg/kg/injection, schedule: Q01DX005 (ip), vehicle: saline) 103 % of control; (dose: 25.0 mg/kg/injection, schedule: Q01DX005 (ip), vehicle: saline) 103 % of control; (dose: 50.0 mg/kg/injection, schedule: Q01DX005 (ip), vehicle: saline) 103 % of control and 110 % of control.

On to `O=C(c1ccccc1)C12CCC(CC1)C2`, for which the T/C under setting [4] was 103 % of control, the T/C under setting [5] was 103 % of control and the T/C under setting [6] is 110 % of control.

On to `CC(=O)/C(=N/O)C(C)=NCc1ccccc1`, for which the T/C under setting [5] was 88 % of control.

For `NC(CO)C(=O)O` (stereo not drawn), the T/C runs as follows: under setting [7], 102 % of control; under setting [8], 105 % of control; under setting [1], 110 % of control; under setting [9], 114 % of control; under setting [2], 112 % of control [middle of 4 runs]; under setting [3], 104 % of control [middle of 4 runs]. Besides, the T/C by setting is: (dose: 100.0 mg/kg/injection, schedule: Q04DX003 (ip), vehicle: saline with Tween-80) 99 % of control; (dose: 200.0 mg/kg/injection, schedule: Q01DX009 (ip), vehicle: saline) 110 % of control [middle of 4 runs]; (dose: 200.0 mg/kg/injection, schedule: Q04DX003 (ip), vehicle: saline with Tween-80) 97 % of control; (dose: 400.0 mg/kg/injection, schedule: Q04DX003 (ip), vehicle: saline with Tween-80) 100 % of control.

On to `O=C1ON=C(COc2ccccc2)/C1=C\c1ccc(Cl)cc1`, for which the T/C runs as follows: (dose: 15.0 mg/kg/injection, schedule: Q01DX005 (ip), vehicle: saline with Tween-80) 105 % of control; (dose: 30.0 mg/kg/injection, schedule: Q01DX005 (ip), vehicle: saline with Tween-80) 101 % of control; under setting [10], 104 % of control.

In the case of `CC(=O)OCC1OC(Nc2[nH]c(=O)n(C)c(=O)c2C(=O)CCl)C(OC(C)=O)C(OC(C)=O)C1OC(C)=O` (stereo not drawn), the T/C under setting [10] was 114 % of control; the T/C (dose: 120.0 mg/kg/injection, schedule: Q01DX005 (ip), vehicle: saline with Tween-80) was 105 % of control; the T/C (dose: 240.0 mg/kg/injection, schedule: Q01DX005 (ip), vehicle: saline with Tween-80) was 124 % of control.

Take `NC(=Nc1ccc(Cl)cc1)N/N=C/c1ccc(Cl)c(Cl)c1`: the T/C is, setting by setting: under setting [11], 103 % of control; (dose: 40.0 mg/kg/injection, schedule: Q04DX002 (ip), vehicle: saline with Tween-80) 100 % of control; under setting [12], 106 % of control; under setting [13], 107 % of control; (dose: 400.0 mg/kg/injection, schedule: Q04DX002 (ip), vehicle: saline with Tween-80) 113 % of control.

For `O=C1NC(=O)C2(CCCc3ccccc32)N1` (stereo not drawn), the T/C by setting is: (dose: 50.0 mg/kg/injection, schedule: Q01DX005 (ip), vehicle: Klucel (hydroxypropylcellulose) (HPC)) 101 % of control; under setting [14], 97 % of control; (dose: 100.0 mg/kg/injection, schedule: Q01DX005 (ip), vehicle: Klucel (hydroxypropylcellulose) (HPC)) 104 % of control; under setting [15], 94 % of control; (dose: 200.0 mg/kg/injection, schedule: Q01DX005 (ip), vehicle: Klucel (hydroxypropylcellulose) (HPC)) 104 % of control; under setting [16], 94 % of control.

Take `CCOc1ccc2cc3c(nc2n1)[nH]c1ccccc13`: the T/C (dose: 100.0 mg/kg/injection, schedule: Q04DX003 (ip), vehicle: Klucel (hydroxypropylcellulose) (HPC)) was 103 % of control; the T/C (dose: 200.0 mg/kg/injection, schedule: Q04DX003 (ip), vehicle: Klucel (hydroxypropylcellulose) (HPC)) was 107 % of control; the T/C (dose: 400.0 mg/kg/injection, schedule: Q04DX003 (ip), vehicle: Klucel (hydroxypropylcellulose) (HPC)) was 110 % of control.

`COc1ccc(C(=O)C2C(C(=O)c3ccccc3)C23C(=O)N(C)c2ccccc23)cc1` (stereo not drawn): the T/C by setting is: under setting [11], 101 % of control; (dose: 50.0 mg/kg/injection, schedule: Q04DX002 (ip), vehicle: saline with Tween-80) 100 % of control; under setting [12], 98 % of control.

`Cc1nn(C(=O)c2ccncc2)c(C)c1N=Nc1nc2ccc([N+](=O)[O-])cc2s1`: the T/C runs as follows: under setting [12], 97 % of control; under setting [13], 94 % of control.

With `O=NN(CCCl)C(=O)NC1CC2CCC1C2` (stereo not drawn), the T/C is 195 % of control under setting [7]; 250 % of control under setting [8]; 225 % of control (dose: 25.0 mg/kg/injection, schedule: Q04DX003 (ip), vehicle: saline with Tween-80); 213 % of control (dose: 33.0 mg/kg/injection, schedule: Q04DX003 (ip), vehicle: saline with Tween-80); 109 % of control under setting [9]; 204 % of control and 295 % of control (dose: 50.0 mg/kg/injection, schedule: Q04DX003 (ip), vehicle: saline with Tween-80). The T/C (dose: 75.0 mg/kg/injection, schedule: Q04DX003 (ip), vehicle: saline with Tween-80) is 90 % of control.

Take `O=C(NCCCl)Nc1ccnc(=O)[nH]1`: the T/C under setting [14] was 107 % of control, the T/C under setting [15] is 107 % of control and the T/C under setting [16] was 111 % of control.

Turning to `CCOC(=O)CCCCCCCCNC(=S)N1c2c(nc(N)[nH]c2=O)NCC1CNc1ccc(C(=O)NC(CCC(=O)O)C(=O)O)cc1` (stereo not drawn), the T/C by setting is: under setting [4], 90 % of control; under setting [5], 110 % of control; under setting [6], 99 % of control.

Turning to `O=C1CCCN1C1CC2c3ccccc3C1c1cccc[n+]12` (stereo not drawn), the T/C (dose: 5.0 mg/kg/injection, schedule: Q01DX009 (ip), vehicle: saline sonified) was 100 % of control; the T/C (dose: 10.0 mg/kg/injection, schedule: Q01DX009 (ip), vehicle: saline sonified) is 100 % of control; the T/C (dose: 20.0 mg/kg/injection, schedule: Q01DX009 (ip), vehicle: saline sonified) is 95 % of control.

`Cc1ccc(S(=O)(=O)N(Cc2ccccc2)S(=O)(=O)c2ccc(C)cc2)cc1`: the T/C by setting is: under setting [8], 110 % of control; under setting [9], 118 % of control; (dose: 100.0 mg/kg/injection, schedule: Q01DX009 (ip), vehicle: saline with Tween-80) 101 % of control.

Regarding `COC(=O)Nc1cn2nc(N)sc2n1`, the T/C is 102 % of control (dose: 100.0 mg/kg/injection, schedule: Q01DX001 (ip), vehicle: saline with Tween-80); 101 % of control (dose: 200.0 mg/kg/injection, schedule: Q01DX001 (ip), vehicle: saline with Tween-80); 99 % of control (dose: 400.0 mg/kg/injection, schedule: Q01DX001 (ip), vehicle: saline with Tween-80).

Take `CC(C)=CCC/C(C)=C/CC1=CC(=O)C=CC1=O`: the T/C was 101 % of control (dose: 25.0 mg/kg/injection, schedule: Q01DX009 (ip), vehicle: Klucel (hydroxypropylcellulose) (HPC)); 97 % of control under setting [4]; 87 % of control under setting [5].

Turning to `CCOC(=O)c1cc(Cl)ccc1OS(N)(=O)=O`, the T/C is, setting by setting: (dose: 60.0 mg/kg/injection, schedule: Q01DX005 (ip), vehicle: Klucel (hydroxypropylcellulose) (HPC)) 105 % of control; (dose: 120.0 mg/kg/injection, schedule: Q01DX005 (ip), vehicle: Klucel (hydroxypropylcellulose) (HPC)) 100 % of control; (dose: 240.0 mg/kg/injection, schedule: Q01DX005 (ip), vehicle: Klucel (hydroxypropylcellulose) (HPC)) 99 % of control.
